Peptide text beside a SMILES is read from it.
What was measured:
hMC4-R [1] = biological target: T1, hMC4-R (Homo sapiens (Human), UniProt P32245); test: Competitive binding assay using Eu-NDP-α-MSH (TRF), hMC4-R membranes; details: averaged; Eu-NDP-α-MSH (values marked *); read-out: MC4-R Ki
Description: Alternatively, a competitive inhibition binding assay was performed employing Eu-NDP-α-MSH (PerkinElmer Life Sciences catalog No. AD0225) with determination by time-resolved fluorometry (TRF) of the lanthanide chelate. […] After incubation for 90 minutes at 37° C., the reaction was stopped by filtration over AcroWell 96-well filter plates (Pall Life Sciences). The filter plates were washed 4 times with 200 μL of ice-cold phosphate-buffered saline. DELFIA Enhancement solution (PerkinElmer Life Sciences) was added to each well. […] Each assay was conducted in duplicate and mean values were utilized. Ki values were determined by curve-fitting with Graph-Pad Prism® software using a one-site fixed-slope competition binding model.

hMC4-R [2] = biological target: T1, hMC4-R; test: Assay for agonist activity: cAMP accumulation in HEK-293 cells that express hMC4-R; details: agonist = intrinsic activity 70% or higher; partial agonist 10-70%
Description: By “intrinsic activity” is meant the maximal functional activity achievable by a compound in a specified melanocortin receptor expressing cell system, such as the maximal stimulation of adenylyl cyclase.
Accumulation of intracellular cAMP was examined as a measure of the ability of the peptides of the present invention to elicit a functional response in HEK-293 cells that express MC4-R. Confluent HEK-293 cells that express recombinant hMC4-R were detached from culture plates by incubation in enzyme-free cell dissociation buffer. Dispersed cells were suspended in Earle's Balanced Salt Solution containing 10 mM HEPES (pH 7.5), 1 mM MgCl2, 1 mM glutamine, 0.5% albumin and 0.3 mM 3-isobutyl-1-methyl-xanthine (IBMX), a phosphodiesterase inhibitor. […] Cells were exposed for 15 minutes at 37° C. to peptides of the present invention dissolved in DMSO (final DMSO concentration of 1%) at a concentration range of 0.05-5000 nM in a total assay volume of 200 μL. […] Data analysis was performed by nonlinear regression analysis with Graph-Pad Prism® software. The maximum efficacies of the test peptides of the present invention were compared to that achieved by the reference melanocortin agonist NDP-αMSH.

T1 sequence (P32245 whole entry): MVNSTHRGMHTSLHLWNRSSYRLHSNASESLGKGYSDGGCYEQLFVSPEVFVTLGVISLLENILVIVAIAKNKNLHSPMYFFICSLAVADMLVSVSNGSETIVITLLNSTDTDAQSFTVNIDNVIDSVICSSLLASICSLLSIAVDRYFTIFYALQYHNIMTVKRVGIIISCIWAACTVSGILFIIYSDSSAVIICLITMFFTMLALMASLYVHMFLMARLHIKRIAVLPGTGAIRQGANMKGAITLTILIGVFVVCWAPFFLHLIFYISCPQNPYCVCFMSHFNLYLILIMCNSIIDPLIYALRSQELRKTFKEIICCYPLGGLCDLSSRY

`CC[C@H](C)[C@@H]1NC(=O)[C@@H](NC(=O)[C@H](CCCNC(=N)N)NC(C)=O)CC(=O)NCCCC[C@@H](C(N)=O)NC(=O)[C@H](Cc2c[nH]c3ccccc23)NC(=O)[C@H](CCCNC(=N)N)NC(=O)[C@@H](Cc2ccccc2)NC1=O` [compound 34, Ac-Arg-cyclo(Asp-Ile-D- Phe-Arg-Trp-Lys)-NH2] (HELM PEPTIDE1{[ac].R.D.I.[dF].R.W.K.[am]}$PEPTIDE1,PEPTIDE1,3:R3-8:R3$$$V2.0) was tested, and the Ki (hMC4-R [1]) was 19 nM.

Work on `CC(=O)N[C@@H](CCCNC(=N)N)C(=O)N[C@H]1CC(=O)NCCCC[C@@H](C(N)=O)NC(=O)[C@H](Cc2c[nH]c3ccccc23)NC(=O)[C@H](CCCNC(=N)N)NC(=O)[C@@H](Cc2ccccc2)NC(=O)[C@H]([C@@H](C)O)NC1=O` [compound 35, Ac-Arg-cyclo(Asp-Thr- D-Phe-Arg-Trp-Lys)- NH2] (HELM PEPTIDE1{[ac].R.D.T.[dF].R.W.K.[am]}$PEPTIDE1,PEPTIDE1,3:R3-8:R3$$$V2.0) yielded a Ki (hMC4-R [1]) of 140 nM.

`CSCC[C@@H]1NC(=O)[C@@H](NC(=O)[C@H](CCCNC(=N)N)NC(C)=O)CC(=O)NCCCC[C@@H](C(N)=O)NC(=O)[C@H](Cc2c[nH]c3ccccc23)NC(=O)[C@H](CCCNC(=N)N)NC(=O)[C@@H](Cc2ccccc2)NC1=O` [compound 38, Ac-Arg-cyclo(Asp-Met- D-Phe-Arg-Trp-Lys)- NH2] (HELM PEPTIDE1{[ac].R.D.M.[dF].R.W.K.[am]}$PEPTIDE1,PEPTIDE1,3:R3-8:R3$$$V2.0) was tested, and the Ki (hMC4-R [1]) was 35 nM.

Work on `CC(=O)N[C@@H](CCCNC(=N)N)C(=O)N[C@H]1CC(=O)NCCCC[C@@H](C(N)=O)NC(=O)[C@H](Cc2c[nH]c3ccccc23)NC(=O)[C@H](CCCNC(=N)N)NC(=O)[C@@](C)(Cc2ccccc2)NC(=O)[C@H](Cc2c[nH]cn2)NC1=O` [compound 60, Ac-Arg-cyclo(Asp-His- D-(alpha-Me)Phe-Arg- Trp-Lys)-NH2] yielded a Ki (hMC4-R [1]) of 47 nM.

Compound `CC(=O)N[C@@H](CCCNC(=N)N)C(=O)N[C@H]1CC(=O)NCCCC[C@@H](C(N)=O)NC(=O)[C@H](Cc2c[nH]c3ccccc23)NC(=O)[C@H](CCCNC(=N)N)NC(=O)[C@@H](Cc2ccccc2)NC(=O)[C@H](CN)NC1=O` [compound 62, Ac-Arg-cyclo(Asp-Dap- D-Phe-Arg-Trp-Lys)- NH2] has a Ki (hMC4-R [1]) of 80 nM.

For `CC(=O)N[C@H](CCCNC(=N)N)C(=O)N[C@H]1CC(=O)NCCCC[C@@H](C(N)=O)NC(=O)[C@H](Cc2c[nH]c3ccccc23)NC(=O)[C@H](CCCNC(=N)N)NC(=O)[C@@H](Cc2ccccc2)NC(=O)[C@H](C)NC1=O` [compound 70, Ac-D-Arg-cyclo(Asp- Ala-D-Phe-Arg-Trp- Lys)-NH2], the Ki (hMC4-R [1]) was 46 nM.

For `CC(=O)N[C@H](CCCNC(=N)N)C(=O)N[C@H]1CC(=O)NCCCC[C@@H](C(N)=O)NC(=O)[C@H](Cc2c[nH]c3ccccc23)NC(=O)[C@H](CCCNC(=N)N)NC(=O)[C@@H](Cc2ccccc2)NC(=O)[C@@H]2C[C@@H](Cc3ccccc3)CN2C1=O` [compound 72, Ac-D-Arg-cyclo(Asp- Pro(4R-Bzl)-D-Phe-Arg- Trp-Lys)-NH2], the Ki (hMC4-R [1]) was 2 nM.

`CC(=O)N[C@@H](CCCNC(=N)N)C(=O)N[C@H]1CC(=O)NCCCC[C@@H](C(=O)O)NC(=O)[C@H](Cc2c[nH]c3ccccc23)NC(=O)[C@H](CCCNC(=N)N)NC(=O)[C@@H](Cc2ccccc2)NC(=O)[C@H](CCCNC(=N)N)NC1=O` [compound 73, Ac-Arg-cyclo(Asp-Arg- D-Phe-Arg-Trp-Lys)-OH] was tested, and the Ki (hMC4-R [1]) was 60 nM.

In the case of `CC(=O)N[C@H](CCCNC(=N)N)C(=O)N[C@H]1CCC(=O)NCCC[C@@H](C(=O)O)NC(=O)[C@H](Cc2c[nH]c3ccccc23)NC(=O)[C@H](CCCNC(=N)N)NC(=O)[C@@H](Cc2ccccc2)NC(=O)[C@H](Cc2c[nH]cn2)NC1=O` [compound 85, Ac-D-Arg-cyclo(Glu- His-D-Phe-Arg-Trp- Orn)-OH] (HELM PEPTIDE1{[ac].[dR].E.H.[dF].R.W.[Orn]}$PEPTIDE1,PEPTIDE1,3:R3-8:R3$$$V2.0), the Ki (hMC4-R [1]) is reported as 40 nM.

For `CC(=O)N[C@@H](CCCNC(=N)N)C(=O)N[C@H]1CCC(=O)NCCC[C@@H](C(=O)O)NC(=O)[C@H](Cc2c[nH]c3ccccc23)NC(=O)[C@H](CCCNC(=N)N)NC(=O)[C@@H](Cc2ccccc2)NC(=O)[C@H](CCCCN)NC1=O` [compound 89, Ac-Arg-cyclo(Glu-Lys- D-Phe-Arg-Trp-Orn)- OH] (HELM PEPTIDE1{[ac].R.E.K.[dF].R.W.[Orn]}$PEPTIDE1,PEPTIDE1,3:R3-8:R3$$$V2.0), the Ki (hMC4-R [1]) was 113 nM.

`CC(=O)N[C@@H](CCCNC(=N)N)C(=O)N[C@H]1CCCCNC(=O)C[C@@H](C(N)=O)NC(=O)[C@H](Cc2c[nH]c3ccccc23)NC(=O)[C@H](CCCNC(=N)N)NC(=O)[C@@H](Cc2ccccc2)NC(=O)[C@H](Cc2c[nH]cn2)NC1=O` [compound 96, Ac-Arg-cyclo(Lys-His- D-Phe-Arg-Trp-Asp)- NH2] (HELM PEPTIDE1{[ac].R.K.H.[dF].R.W.D.[am]}$PEPTIDE1,PEPTIDE1,3:R3-8:R3$$$V2.0; bridges inferred) showed a Ki (hMC4-R [1]) of 1 nM.

With `CCNC(=O)[C@@H]1CCCNC(=O)CC[C@H](NC(=O)[C@H](CCCNC(=N)N)NC(C)=O)C(=O)N[C@@H](Cc2c[nH]cn2)C(=O)N[C@H](Cc2ccccc2)C(=O)N[C@@H](CCCNC(=N)N)C(=O)N[C@@H](Cc2c[nH]c3ccccc23)C(=O)N1` [compound 109, Ac-Arg-cyclo(Glu-His- D-Phe-Arg-Trp-Orn)- NH-Et] (HELM PEPTIDE1{[ac].R.E.H.[dF].R.W.[Orn].[CCN[*:1]]}$PEPTIDE1,PEPTIDE1,3:R3-8:R3$$$V2.0) the Ki (hMC4-R [1]) was 6 nM.

For `CC(=O)N[C@@H](CCCNC(=N)N)C(=O)N[C@H]1CCC(=O)NCCC[C@@H](C(=O)NC2CC2)NC(=O)[C@H](Cc2c[nH]c3ccccc23)NC(=O)[C@H](CCCNC(=N)N)NC(=O)[C@@H](Cc2ccccc2)NC(=O)[C@H](Cc2c[nH]cn2)NC1=O` [compound 110, Ac-Arg-cyclo(Glu-His- D-Phe-Arg-Trp-Orn)- NH-cyclopropyl] (HELM PEPTIDE1{[ac].R.E.H.[dF].R.W.[Orn].[C1CC1N[*:1]]}$PEPTIDE1,PEPTIDE1,3:R3-8:R3$$$V2.0), the Ki (hMC4-R [1]) was 1 nM.

`CC(=O)NC[C@@H]1NC(=O)[C@@H](NC(=O)[C@H](CCCNC(=N)N)NC(C)=O)CC(=O)NCCCC[C@@H](C(N)=O)NC(=O)[C@H](Cc2c[nH]c3ccccc23)NC(=O)[C@H](CCCNC(=N)N)NC(=O)[C@@H](Cc2ccccc2)NC1=O` [compound 114, Ac-Arg-cyclo(Asp- Dab(Acetyl)-D-Phe-Arg- Trp-Lys)-NH2] gave a Ki (hMC4-R [1]) of 88 nM.

For `CC(=O)N[C@@H](CCCNC(=N)N)C(=O)N[C@H]1CC(=O)NCCCC[C@@H](C(N)=O)NC(=O)[C@H](Cc2c[nH]c3ccccc23)NC(=O)[C@H](CCCNC(=N)N)NC(=O)[C@@H](Cc2ccccc2)NC(=O)[C@H](CNC(=O)[C@H]2CCNC2)NC1=O` [compound 118, Ac-Arg-cyclo(Asp- Dap(betaPro)-D-Ph- Arg-Trp-Lys)-NH2], the Ki (hMC4-R [1]) was 145 nM.

`CC(=O)N[C@@H](CCCNC(=N)N)C(=O)N[C@H]1CC(=O)NCCCC[C@@H](C(N)=O)NC(=O)[C@H](Cc2c[nH]c3ccccc23)NC(=O)[C@H](CCCNC(=N)N)NC(=O)[C@@H](Cc2ccccc2)NC(=O)[C@@H]2C[C@@H](Cc3ccccc3Cl)CN2C1=O` [compound 123, Ac-Arg-cyclo(Asp- Pro(4R-2-Cl-Bzl)-D- Phe-Arg-Trp-Lys)-NH2] showed a Ki (hMC4-R [1]) of 8 nM.

Work on `CC(=O)N[C@@H](CCCNC(=N)N)C(=O)N[C@H]1CC(=O)NCCCC[C@@H](C(N)=O)NC(=O)[C@H](Cc2c[nH]c3ccccc23)NC(=O)[C@H](CCCNC(=N)N)NC(=O)[C@@H](Cc2ccccc2)NC(=O)[C@@H]2C[C@@H](Cc3cccc(Cl)c3)CN2C1=O` [compound 124, Ac-Arg-cyclo(Asp- Pro(4R-3-Cl-Bzl)-D- Phe-Arg-Trp-Lys)-NH2] yielded a Ki (hMC4-R [1]) of 19 nM.

In the case of `CC(=O)N[C@@H](CCCNC(=N)N)C(=O)N[C@H]1CCNC(=O)CCC[C@@H](C(N)=O)NC(=O)[C@H](Cc2c[nH]c3ccccc23)NC(=O)[C@H](CCCNC(=N)N)NC(=O)[C@@H](Cc2ccccc2)NC(=O)[C@H](Cc2c[nH]cn2)NC1=O` [compound 128, Ac-Arg-cyclo(Dab-His- D-Phe-Arg-Trp-hGlu)- NH2], the “functional status at MC4-R (agonist / partial agonist)” value (hMC4-R [2]) is reported as “agonist”.

`CC(=O)N[C@H](CCCCN)C(=O)N[C@H]1CCCNC(=O)CC[C@@H](C(N)=O)NC(=O)[C@H](Cc2c[nH]c3ccccc23)NC(=O)[C@H](CCCNC(=N)N)NC(=O)[C@@H](Cc2ccccc2)NC(=O)[C@H](Cc2c[nH]cn2)NC1=O` [compound 133, Ac-D-Lys-cyclo(Orn- His-D-Phe-Arg-Trp- Glu)-NH2] was tested, and the Ki (hMC4-R [1]) was 8 nM.
